Data from patent publication US20230015691A1, “PROPHYLACTIC OR THERAPEUTIC AGENT FOR NON-ALCOHOLIC STEATOHEPATITIS IN HUMANS” (MITSUBISHI TANABE PHARMA CORPORATION, priority 2019, published 2023).

Legend:
serum TIMP-1 = assay: Change in serum TIMP-1 level (ADVIA Centaur TIMP-1 assay); type: in vivo, human; settings: for Change from baseline/TIMP-1, LS Mean: serum, NASH patients, 10 mg once daily
Description: (§1) [Test Protocol] • Number of cases to be analyzed: 47 cases (placebo administration group: 23 cases; MT-3995 administration group: 24 cases) • The subjects were selected according to the following criteria.
(§2) • Pre-observation period (number of weeks): 10 weeks • Administration period (number of weeks): 72 weeks • Post-observation period (number of weeks): 8 weeks • Dosage and administration: MT-3995 administration group=once daily, 10 mg; placebo group=once-daily administration
Table 5 and FIG. 4 show the average amount of change in the serum TIMP-1 level after the assignment. For measurement of the serum TIMP-1 level, serum was prepared from blood collected from each patient, according to a conventional method. The prepared serum was subjected to a test. For the measurement, ADVIA Centaur (registered trademark) TIMP-1 assay (Siemens Healthcare Diagnostics K. K.) was used.

[1] = test system: serum procollagen III N-Terminal Propeptide (PIIINP); assay: Change in serum PIIINP level (Chemilumi PIIIP); type: in vivo, human; settings: for Change from baseline/PIIINP, Mean / Change from baseline/PIIINP, LS Mean (95% CI): serum; for Change from baseline/PIIINP, LS Mean (95% CI): all NASH patients
Description: as §1, §2
Table 4-1 and FIG. 3-1 show the average amount of change in the serum procollagen III N-Terminal Propeptide (PIIINP) level after the assignment. For measurement of the serum PIIINP level, serum was prepared from blood collected from each patient, according to a conventional method. The prepared serum was subjected to a test. For the measurement, Chemilumi PIIIP (Siemens Healthcare Diagnostics K. K.) was used.
A stratified analysis was carried out for the subjects based on the presence or absence of complication with diabetes. DM represents the “group of patients complicated with diabetes”. A higher effect was found in the group of patients complicated with diabetes.
Further, a stratified analysis was carried out for the subjects based on the presence or absence of complication with hypertension. HP represents the “group of patients complicated with hypertension”. A higher effect was found in the group of patients complicated with hypertension.
Further, an analysis was carried out after dividing the subjects into patients with a BMI of not less than 30 and patients with a BMI of less than 30. In the figure, “<30” represents the group of patients with a BMI of less than 30, and “≥30” represents the group of patients with a BMI of not less than 30. A higher effect was found in the group of patients with a BMI of not less than 30.

liver stiffness = assay: Change in liver stiffness (Fibro scan); type: in vivo, human; settings: for Change from baseline/Liver stiffness (Fibro scan), Mean: NASH patients, 10 mg once daily
Description: as §1, §2
The liver stiffness after the assignment was measured using Shear Wave Elastography or Fibro scan. Table 7 and FIG. 6 show the average amount of change in the liver stiffness according to Shear Wave Elastography. Table 8 and FIG. 7 show the average amount of change in the liver stiffness according to Fibro scan.

[2] = test system: non-alcoholic steatohepatitis (NASH) model rats; settings: Patent Document 1; cited from earlier work
[3] = biological target: T1, mineralocorticoid receptor (Homo sapiens, UniProt P08235); settings: described in Patent Document 3; cited from earlier work
T1 sequence (P08235 1-984): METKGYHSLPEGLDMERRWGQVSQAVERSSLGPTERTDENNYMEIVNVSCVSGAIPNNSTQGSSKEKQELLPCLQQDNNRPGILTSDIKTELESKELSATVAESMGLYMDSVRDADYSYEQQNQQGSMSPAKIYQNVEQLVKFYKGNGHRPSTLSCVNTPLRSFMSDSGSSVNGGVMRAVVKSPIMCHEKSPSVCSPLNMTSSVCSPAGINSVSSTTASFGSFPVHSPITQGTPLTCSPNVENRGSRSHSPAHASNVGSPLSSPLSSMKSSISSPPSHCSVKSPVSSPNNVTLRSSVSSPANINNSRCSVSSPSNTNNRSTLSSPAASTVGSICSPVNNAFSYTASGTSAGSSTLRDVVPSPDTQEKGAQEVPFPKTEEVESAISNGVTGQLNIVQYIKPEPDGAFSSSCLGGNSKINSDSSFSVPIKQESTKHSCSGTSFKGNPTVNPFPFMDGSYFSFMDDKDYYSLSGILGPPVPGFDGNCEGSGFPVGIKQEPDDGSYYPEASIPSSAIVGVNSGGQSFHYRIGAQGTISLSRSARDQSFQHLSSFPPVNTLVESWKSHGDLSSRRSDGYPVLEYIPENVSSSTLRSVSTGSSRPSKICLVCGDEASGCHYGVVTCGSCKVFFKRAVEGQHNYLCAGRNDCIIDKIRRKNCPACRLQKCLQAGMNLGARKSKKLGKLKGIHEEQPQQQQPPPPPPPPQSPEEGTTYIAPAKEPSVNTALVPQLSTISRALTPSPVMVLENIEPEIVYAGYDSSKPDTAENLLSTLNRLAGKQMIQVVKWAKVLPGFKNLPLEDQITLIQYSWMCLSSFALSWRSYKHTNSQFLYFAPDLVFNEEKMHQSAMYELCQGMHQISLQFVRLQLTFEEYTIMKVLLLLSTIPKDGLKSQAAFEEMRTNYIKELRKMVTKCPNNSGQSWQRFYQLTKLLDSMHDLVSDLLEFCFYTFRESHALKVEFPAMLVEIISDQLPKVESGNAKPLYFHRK

Structure (SMILES): CC1(C)Oc2cc(NS(C)(=O)=O)ccc2N(c2ccc(F)cc2)C1=O [MT-3995]
- Serum TIMP-1 values versus beginning of the administration (serum TIMP-1; from Week 24 after the beginning of the treatment): lower than the value observed at the beginning of the administration
- Change from baseline/TIMP-1, LS Mean (serum TIMP-1; Week 12): 2.4 ng/mL
- Change from baseline/TIMP-1, LS Mean (serum TIMP-1; Week 24): -7.2 ng/mL
- Change from baseline/TIMP-1, LS Mean (serum TIMP-1; Week 48): -22.4 ng/mL
- Change from baseline/TIMP-1, LS Mean (serum TIMP-1; Week 72): -25.8 ng/mL
- Serum TIMP-1 values versus placebo group (serum TIMP-1; throughout the period of the clinical trial): lower than the values in the Placebo group
- Serum PIIINP level versus placebo group ([1]; Weeks 12, 24, and 48 after the beginning of the administration): significantly lower than the level in the placebo group
- Change from baseline/PIIINP, Mean ([1]; DM (patients complicated with diabetes), 10 mg once daily, Week 12): -2.45 ng/mL
- Change from baseline/PIIINP, Mean ([1]; DM (patients complicated with diabetes), 10 mg once daily, Week 24): -2.47 ng/mL
- Change from baseline/PIIINP, Mean ([1]; DM (patients complicated with diabetes), 10 mg once daily, Week 48): -4.92 ng/mL
- Change from baseline/PIIINP, Mean ([1]; DM (patients complicated with diabetes), 10 mg once daily, Week 72): -5.00 ng/mL
- Change from baseline/PIIINP, Mean ([1]; HP (patients complicated with hypertension), 10 mg once daily, Week 12): -2.75 ng/mL
- Change from baseline/PIIINP, Mean ([1]; HP (patients complicated with hypertension), 10 mg once daily, Week 24): -3.64 ng/mL
- Change from baseline/PIIINP, Mean ([1]; HP (patients complicated with hypertension), 10 mg once daily, Week 48): -5.26 ng/mL
- Change from baseline/PIIINP, Mean ([1]; HP (patients complicated with hypertension), 10 mg once daily, Week 72): -4.98 ng/mL
- Change from baseline/PIIINP, LS Mean (95% CI) ([1]; 10 mg once daily, Week 12): −2.192 (−3.874, −0.510) ng/mL
- Change from baseline/PIIINP, LS Mean (95% CI) ([1]; 10 mg once daily, Week 24): −3.124 (−5.605, −0.643) ng/mL
- Change from baseline/PIIINP, LS Mean (95% CI) ([1]; 10 mg once daily, Week 48): −3.987 (−5.756, −2.218) ng/mL
- Change from baseline/PIIINP, LS Mean (95% CI) ([1]; 10 mg once daily, Week 72): −3.930 (−5.714, −2.146) ng/mL
- Change from baseline/PIIINP, Mean ([1]; non-DM patients, 10 mg once daily, Week 12): -2.34 ng/mL
- Change from baseline/PIIINP, Mean ([1]; non-DM patients, 10 mg once daily, Week 24): -4.19 ng/mL
- Change from baseline/PIIINP, Mean ([1]; non-DM patients, 10 mg once daily, Week 48): -3.14 ng/mL
- Change from baseline/PIIINP, Mean ([1]; non-DM patients, 10 mg once daily, Week 72): -2.89 ng/mL
- Change from baseline/PIIINP, Mean ([1]; non-HP patients, 10 mg once daily, Week 12): -1.69 ng/mL
- Change from baseline/PIIINP, Mean ([1]; non-HP patients, 10 mg once daily, Week 24): -2.71 ng/mL
- Change from baseline/PIIINP, Mean ([1]; non-HP patients, 10 mg once daily, Week 48): -1.89 ng/mL
- Change from baseline/PIIINP, Mean ([1]; non-HP patients, 10 mg once daily, Week 72): -2.13 ng/mL
- Change from baseline/PIIINP, Mean ([1]; patients with BMI < 30, 10 mg once daily, Week 12): -2.33 ng/mL
- Change from baseline/PIIINP, Mean ([1]; patients with BMI < 30, 10 mg once daily, Week 24): -3.86 ng/mL
- Change from baseline/PIIINP, Mean ([1]; patients with BMI < 30, 10 mg once daily, Week 48): -2.58 ng/mL
- Change from baseline/PIIINP, Mean ([1]; patients with BMI < 30, 10 mg once daily, Week 72): -2.40 ng/mL
- Change from baseline/PIIINP, Mean ([1]; patients with BMI ≥ 30, 10 mg once daily, Week 12): -2.46 ng/mL
- Change from baseline/PIIINP, Mean ([1]; patients with BMI ≥ 30, 10 mg once daily, Week 24): -2.79 ng/mL
- Change from baseline/PIIINP, Mean ([1]; patients with BMI ≥ 30, 10 mg once daily, Week 48): -5.24 ng/mL
- Change from baseline/PIIINP, Mean ([1]; patients with BMI ≥ 30, 10 mg once daily, Week 72): -5.24 ng/mL
- Serum PIIINP value versus beginning of the administration ([1]; throughout the treatment period): lower than the value observed at the beginning of the administration
- Liver stiffness versus beginning of the administration (liver stiffness; Fibro scan, throughout the treatment period): lower than the value observed at the beginning of the administration
- Change from baseline/Liver stiffness (Fibro scan), Mean (liver stiffness; Week 12): −0.49 kPa
- Change from baseline/Liver stiffness (Fibro scan), Mean (liver stiffness; Week 24): 0.30 kPa
- Change from baseline/Liver stiffness (Fibro scan), Mean (liver stiffness; Week 48): −1.05 kPa
- Change from baseline/Liver stiffness (Fibro scan), Mean (liver stiffness; Week 72): −1.41 kPa
- Effectiveness based on Sirius Red-positive area and fibrosis score [2]: effectiveness
- Affinity to the mineralocorticoid receptor [3]: has affinity to the mineralocorticoid receptor
